# US10774071B2, “PD-1/PD-L1 inhibitors” (Gilead Sciences, Inc., priority 2018, dated 2020)
# Read-outs that look alike come from different tables or passages of the source.
# Tests used:
# PD-L1 = PD-L1 (Homo sapiens (Human), UniProt Q9NZQ7); assay: PD-L1/PD-L1 dimerization biochemical protein-protein interaction assay (ALPHA); assay type: binding; conditions: read-out: AC50 PDL1 Dimer 1 nM
# PD-1/PD-L1 = PD-1/PD-L1 (Homo sapiens (Human), UniProt Q9NZQ7); assay: PD-1/PD-L1 biochemical protein-protein interaction assay (ALPHA); assay type: binding; conditions: read-out: IC50 PD-L1-PD1
# Procedure: Compounds were tested in biochemical protein-protein interaction assays to determine if they can specifically block the interaction between the extracellular domains of PD-1/PD-L1 or CTLA/CD80. Binding of the protein pairs is measured using a bead based Amplified Luminescent Proximity Homogeneous Assay (ALPHA) platform. […] Final protein concentration in the assays were 0.3 nM (His tagged PD-L1), 2.5 nM (biotinylated Fc-PD-1), 1 nM (His tagged CTLA4) and 1 nM (biotinylated CD80).
# [1] = 0.5 nM His tagged PD-L1 and 0.5 nM FLAG tagged PD-L1, Table 4A
# [2] = 0.3 nM His tagged PD-L1, 2.5 nM biotinylated Fc-PD-1, readings of 0.064 nM are equal to or less than 0.064 nM
# [3] = 0.5 nM His tagged PD-L1 and 0.5 nM FLAG tagged PD-L1, Table 4B
# [4] = 0.3 nM His tagged PD-L1, 2.5 nM biotinylated Fc-PD-1, Table 3B
# PD-1/PD-L1, sequence (Q9NZQ7 19-238): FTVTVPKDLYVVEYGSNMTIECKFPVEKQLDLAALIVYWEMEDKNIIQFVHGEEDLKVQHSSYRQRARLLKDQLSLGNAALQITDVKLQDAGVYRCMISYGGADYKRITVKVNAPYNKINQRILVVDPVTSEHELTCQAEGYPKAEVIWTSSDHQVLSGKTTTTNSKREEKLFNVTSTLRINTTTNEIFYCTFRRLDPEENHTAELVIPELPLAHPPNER
# PD-L1, sequence (Q9NZQ7 19-238): as above
# PD-L1, sequence (Q9NZQ7 19-238): as above
AC50 (PD-L1; [1]) [nM],IC50 (PD-1/PD-L1; [2]) [nM],AC50 (PD-L1; [3]) [nM],IC50 (PD-1/PD-L1; [4]) [nM],Structure (SMILES)
,,6.22,0.064,COc1nc(-c2cccc(-c3cccc4c3CC[C@@H]4Oc3nc(OC)c(CN4CC5(C(=O)O)CCC4CC5)cc3C(F)(F)F)c2Cl)ccc1CNC[C@@H]1CCC(=O)N1 [B-61]
,,35.5,0.065,CNC(=O)[C@H](C)NCc1cc(C(F)(F)F)c(O[C@H]2CCc3c(-c4cccc(-c5ccc(CNC[C@@H]6CCC(=O)N6)c(OC)n5)c4Cl)cccc32)nc1OC [B-249]
,,12.5,0.064,COc1nc(-c2cccc(-c3cccc4c3CC[C@@H]4Oc3nc(OC)c(CNC(C)(C)CC(=O)O)cc3Cl)c2Cl)ccc1CNC[C@@H]1CCC(=O)N1 [B-197]
,,18,0.064,COc1nc(O[C@H]2CCc3c(-c4cccc(-c5cc(C)c(CNC[C@@H]6CCC(=O)N6)c(OC)n5)c4Cl)cccc32)c(C)cc1CNC1(C(=O)O)CC1 [B-244]
,,36.4,0.237,CNC(=O)CNCc1cc(C(F)(F)F)c(O[C@H]2CCc3c(-c4cccc(-c5ccc(CNC[C@@H]6CCC(=O)N6)c(OC)n5)c4Cl)cccc32)nc1OC [B-250]
,,6.79,0.064,COc1nc(O[C@H]2CCc3c(-c4cccc(-c5ccc(CNC[C@@H]6CCC(=O)N6)c(OCC#N)n5)c4Cl)cccc32)c(C(F)(F)F)cc1CNC1(C(=O)O)CC1 [B-125]
,,54.5,0.064,COc1nc(-c2cccc(-c3cccc4c3CC[C@@H]4Oc3nc(OC)c(CN4C[C@@H]5CCC[C@]5(C(=O)O)C4)cc3Cl)c2Cl)ccc1CNC[C@@H]1CCC(=O)N1 [B-92]
,,44.3,0.064,COc1nc(O[C@H]2CCc3c(-c4cccc(-c5cnc(CNC[C@@H]6CCC(=O)N6)c(OC)n5)c4Cl)cccc32)c(Cl)cc1CN1CC(C(=O)O)C1 [B-43]
,,8.73,0.064,COc1nc(-c2cccc(-c3cccc4c3CC[C@@H]4Oc3nc(OC)c(CN(C)[C@@H](C)C(=O)O)cc3C(F)(F)F)c2Cl)ccc1CNC[C@@H]1CCC(=O)N1 [B-257]
,,28.5,0.251,COc1nc(-c2cccc(-c3cccc4c3CC[C@@H]4Oc3nc(OC)c(CNCC(N)=O)cc3C(F)(F)F)c2Cl)ccc1CNC[C@@H]1CCC(=O)N1 [B-266]
,,6.13,0.064,CC[C@H](NCc1cc(C(F)(F)F)c(O[C@H]2CCc3c(-c4cccc(-c5ccc(CNC[C@@H]6CCC(=O)N6)c(OC)n5)c4Cl)cccc32)nc1OC)C(=O)O [B-269]
,,3.92,0.064,COc1nc(-c2cccc(-c3cccc4c3CC[C@@H]4Oc3nc(OC)c(CN4CCC[C@@]4(C)C(=O)O)cc3C(F)(F)F)c2Cl)ccc1CNC[C@@H]1CCC(=O)N1 [B-13]
,,0.988,0.064,COc1cc(-c2cccc(-c3cccc4c3CC[C@@H]4Oc3nc(OC)c(CN4CCC[C@@]4(C)C(=O)O)cc3C(F)(F)F)c2Cl)ccc1CNC[C@@H]1CCC(=O)N1 [B-118]
,,51.6,0.064,COc1cc(O[C@H]2CCc3c(-c4cccc(-c5ccc(CNC[C@@H]6CCC(=O)N6)c(OC)n5)c4Cl)cccc32)c(Cl)cc1CN1CC[C@H](C(=O)O)C1 [B-167]
,,12.5,0.064,COc1cc(-c2cccc(-c3cccc4c3CC[C@@H]4Oc3nc(OC)c(CN4CC(C(=O)O)C4)cc3Cl)c2Cl)ccc1CNC[C@@H]1CCC(=O)N1 [B-42]
,,13.5,0.064,COc1cc(O[C@H]2CCc3c(-c4cccc(-c5ccc(CNC[C@@H]6CCC(=O)N6)c(OC)n5)c4Cl)cccc32)c(C(F)(F)F)cc1CNC[C@@H](O)CC(=O)O [B-222]
,,3.43,0.064,COc1nc(-c2cccc(-c3cccc4c3CC[C@@H]4Oc3nc(OC)c(CN4CC[C@@](C)(C(=O)O)C4)cc3C(F)(F)F)c2Cl)ccc1CNC[C@@H]1CC(O)C(=O)N1 (stereo partly drawn) [B-202]
,,3.8,0.064,COc1cc(-c2cccc(-c3cccc4c3CC[C@@H]4Oc3nc(OC)c(CN4CC5(C(=O)O)CCC4CC5)cc3Cl)c2Cl)ccc1CNC[C@@H]1CCC(=O)N1 [B-39]
,,64.8,0.201,CNC(=O)C1CN(Cc2cc(Cl)c(O[C@H]3CCc4c(-c5cccc(-c6ccc(CNC[C@@H]7CCC(=O)N7)c(OC)n6)c5Cl)cccc43)nc2OC)C1 [B-101]
,,43.2,0.064,COc1nc(-c2cccc(-c3cccc4c3CC[C@@H]4Oc3nc(OC)c(CN4CC(C(=O)O)C4)nc3C)c2Cl)ccc1CNC[C@@H]1CCC(=O)N1 [B-148]
,,7.82,0.064,COc1nc(-c2cccc(-c3cccc4c3CC[C@@H]4Oc3nc(OC)c(CN4CC(C(=O)O)C4)cc3C(F)(F)F)c2Cl)ccc1CNC[C@@H]1CCC(=O)N1 [B-63]
,,18.9,0.064,COc1nc(-c2cccc(-c3cccc4c3CC[C@@H]4Oc3nc(OC)c(CN[C@H](C)C(=O)O)cc3C)c2Cl)ccc1CNC[C@@H]1CCC(=O)N1 [B-242]
,,40.5,0.076,COc1nc(-c2cccc(-c3cccc4c3CC[C@@H]4Oc3nc(OC)c(CN4CCC(NC(C)=O)C4)cc3Cl)c2Cl)ccc1CNC[C@@H]1CCC(=O)N1 (stereo partly drawn) [B-64]
,,66.2,0.072,COc1nc(-c2cccc(-c3cccc4c3CC[C@@H]4Oc3nc(OC)c(CNC[C@@H]4CCC(=O)N4)nc3C)c2Cl)ccc1CNC[C@@H]1CCC(=O)N1 [B-151]
,,9.3,0.064,COc1nc(-c2cccc(-c3cccc4c3CC[C@@H]4Oc3nc(OC)c(CN4CC[C@@H](C(=O)O)C4)cc3C(F)(F)F)c2Cl)ccc1CNC[C@@H]1CCC(=O)N1 [B-62]
,,12,0.064,COc1nc(-c2cccc(-c3cccc4c3CC[C@@H]4Oc3nc(OC)c(CN4CC5CCC4(C(=O)O)CC5)cc3Cl)c2Cl)ccc1CNC[C@@H]1CCC(=O)N1 [B-231]
,,35.5,0.064,COc1nc(O[C@H]2CCc3c(-c4cccc(-c5ccc(CNC[C@@H]6CCC(=O)N6)c(Cl)c5)c4Cl)cccc32)c(Cl)cc1CNC1(C(=O)O)CC1 [B-116]
,,3.76,0.064,COc1cc(-c2cccc(-c3cccc4c3CC[C@@H]4Oc3nc(OC)c(CNC4(C(=O)O)CC4)cc3C(F)(F)F)c2Cl)cc(F)c1CNC[C@@H]1CCC(=O)N1 [B-193]
,,6.19,0.064,COc1nc(-c2cccc(-c3cccc4c3CC[C@@H]4Oc3nc(OC)c(CN4[C@H](C(=O)O)C[C@@H]5C[C@@H]54)cc3C(F)(F)F)c2Cl)ccc1CNC[C@@H]1CCC(=O)N1 [B-137]

# The remaining lines, values behind:
Structure (SMILES),AC50 (PD-L1; [1]) [nM],IC50 (PD-1/PD-L1; [2]) [nM],AC50 (PD-L1; [3]) [nM],IC50 (PD-1/PD-L1; [4]) [nM]
"COc1nc(-c2cccc(-c3cccc4c3CC[C@@H]4Nc3nc(OC)c(CN4CC[C@@](C)(C(=O)O)C4)cc3C(F)(F)F)c2Cl)ccc1CNC[C@@H]1CCC(=O)N1 [A-2, (R)-1-((6-(((S)-4-(2-chloro-3-(6-methoxy-5-(((((S)-5-oxopyrrolidin-2-yl)methyl)amino)methyl)pyridin-2-yl)phenyl)-2,3-dihydro-1H-inden-1-yl)amino)-2-methoxy-5-(trifluoromethyl)pyridin-3-yl)methyl)-3-methylpyrrolidine-3-carboxylic acid]",13.5,≤ 0.064,,
COc1nc(N[C@H]2CCc3c(-c4cccc(-c5ccc(CNC[C@@H]6CCC(=O)N6)c(OCC#N)n5)c4Cl)cccc32)c(C(F)(F)F)cc1CN1CCC[C@@]1(C)C(=O)O [A-27],7.77,≤ 0.064,,
COc1cc(N[C@H]2CCc3c(-c4cccc(-c5ccc(CNC[C@@H]6CCC(=O)N6)c(OC)n5)c4Cl)cccc32)c(C(F)(F)F)cc1CN1CC2(C(=O)O)CCC1CC2 [A-12],26.4,≤ 0.064,,
COc1nc(-c2cccc(-c3cccc4c3CC[C@@H]4Nc3nc(OC)c(CN[C@@H](C)C(=O)O)nc3C(F)(F)F)c2Cl)ccc1CNC[C@H]1C[C@H](O)C1 [A-48],13.5,≤ 0.064,,
COc1nc(-c2cccc(-c3cccc4c3CC[C@@H]4Nc3nc(OC)c(CN4CC[C@@](C)(C(=O)O)C4)nc3C(F)(F)F)c2Cl)ccc1CN1CC(C)(O)C1 [A-68],83.7,≤ 0.064,,
COc1nc(-c2cccc(-c3cccc4c3CC[C@@H]4Nc3nc(OC)c(CN4CC(C)(O)C4)nc3C(F)(F)F)c2Cl)ccc1CN1CC[C@@H](C(=O)O)C1 [A-71],52.4,≤ 0.064,,
COc1nc(-c2cccc(-c3cccc4c3CC[C@@H]4Nc3nc(OC)c(CNCC(=O)O)nc3C(F)(F)F)c2Cl)ccc1CN1CC(C)(O)C1 [A-75],18.1,≤ 0.064,,
COc1nc(-c2cccc(-c3cccc4c3CC[C@@H]4Nc3nc(OC)c(CNC(C)(C)C(=O)O)cc3C(F)(F)F)c2Cl)ccc1CN[C@H]1C[C@](C)(O)C1 [A-92],15.1,≤ 0.064,,
COc1cc(-c2cccc(-c3cccc4c3CC[C@@H]4Nc3nc(OC)c(CN(C)CC(=O)O)nc3C(F)(F)F)c2Cl)cc(F)c1CNC[C@@H]1CCC(=O)N1 [A-30],9.89,≤ 0.064,,
COc1nc(-c2cccc(-c3cccc4c3CC[C@@H]4Nc3nc(OC)c(CNCC(=O)O)cc3C(F)(F)F)c2Cl)ccc1CNC[C@H]1C[C@](C)(O)C1 [A-84],31.8,≤ 0.064,,
COc1nc(-c2cccc(-c3cccc4c3CC[C@@H]4Nc3nc(OC)c(CN4CC[C@@H](C(=O)O)C4)cc3C(F)(F)F)c2Cl)ccc1CN1CC(C)(O)C1 [A-25],28.1,≤ 0.064,,
COc1nc(-c2cccc(-c3cccc4c3CC[C@@H]4Nc3nc(OC)c(CN4CCCC[C@]4(C)C(=O)O)cc3C(F)(F)F)c2Cl)ccc1CN1CC(C)(O)C1 [A-51],106,≤ 0.064,,
COc1nc(N[C@H]2CCc3c(-c4cccc(-c5ccc(CNC[C@@H]6CCC(=O)N6)c(OCC#N)n5)c4Cl)cccc32)c(C(F)(F)F)cc1CN1CCC[C@]1(C)C(=O)O [A-28],18.1,≤ 0.064,,
